{"source": "paper PMC9838390", "about": "“Discovery and biosynthesis of karnamicins as angiotensin converting enzyme inhibitors” (Nature Communications, 2023)", "test_system": "KnmB2", "test": "NADPH oxidation of KnmB2 and variants (340 nm)", "assay_type": "biochemical, L. rhizosphaerae NEAU-A2", "description": "Hydrogen peroxide formation assay and NADPH oxidation\nThe hydrogen peroxide formed from KnmB1, KnmB2 and their variants were measured using the Hydrogen Peroxide Assay Kit (Beyotime Industrial Co. Ltd, Shanghai, China)4-5. 5–100 µL of enzyme reaction mixture was added to 100 µL of working reagent (S0038-1). The mixture was incubated for 30 min at 25 °C, at which time the absorbance at 560 nm was measured by NanoDrop 2000c (Fisher Scientific). The level of H2O2 was calculated according to a standard concentration curve from standard […]\nNADPH detection was carried out in the cuvette by NanoDrop 2000c (Fisher Scientific). NADPH signal at 340 nm was monitored in time using 6220 M–1 cm–1 as […]\nSpectral data for new compounds […]\nReaction conditions: 50 mM Tris-HCl buffer (pH 7.5),\n0.15 mM NADPH, and 2 μM KnmB1 or KnmB2. […]\nμM KnmB1 or variants, or 0.1 mM substrate 24/32/36. (h) NADPH oxidation of KnmB2 and variants. (i) NADPH oxidation of KnmB2 and variants in the presence 24 or 32. (j) H2O2 generation for KnmB2 and variants in the presence 24 or 32. Reaction conditions (h-j) for KnmB2 and their variants: 50 mM Tris-HCl buffer (pH 7.5), 0.15 mM NADPH, 2 μM KnmB2 or variants, or 0.1 mM substrate 24/32. Values are the means ± SD of n = 3 independent experiments, except for KnmB2+24 (T = 40 min), KnmB2-N219D+24 (T = 4 min), KnmB2-Y215F+24 (T= 1 min and 3 min) in i and j, and KnmB2+32 (T= 8 min) in j (n = 2). Source data are provided as a Source Data file. […]", "data": [{"smiles": "CC(C)CCCCc1nc(-c2cc(O)cc(C(N)=O)n2)cs1", "note": "[Compound 24]", "values": [{"measurement": "NADPH oxidation, average value", "setting": "KnmB2+24, Time 0", "result": 0.0000, "unit": "µM"}, {"measurement": "NADPH oxidation, average value", "setting": "KnmB2+24, Time 1", "result": 5.8950, "unit": "µM"}, {"measurement": "NADPH oxidation, average value", "setting": "KnmB2+24, Time 2", "result": 11.0397, "unit": "µM"}, {"measurement": "NADPH oxidation, average value", "setting": "KnmB2+24, Time 3", "result": 17.6849, "unit": "µM"}, {"measurement": "NADPH oxidation, average value", "setting": "KnmB2+24, Time 4", "result": 25.7235, "unit": "µM"}, {"measurement": "NADPH oxidation, average value", "setting": "KnmB2+24, Time 5", "result": 35.2090, "unit": "µM"}, {"measurement": "NADPH oxidation, average value", "setting": "KnmB2+24, Time 8", "result": 55.4662, "unit": "µM"}, {"measurement": "NADPH oxidation, average value", "setting": "KnmB2+24, Time 10", "result": 66.9346, "unit": "µM"}, {"measurement": "NADPH oxidation, average value", "setting": "KnmB2+24, Time 15", "result": 84.8339, "unit": "µM"}, {"measurement": "NADPH oxidation, average value", "setting": "KnmB2+24, Time 20", "result": 95.5520, "unit": "µM"}, {"measurement": "NADPH oxidation, average value", "setting": "KnmB2+24, Time 30", "result": 104.1265, "unit": "µM"}, {"measurement": "NADPH oxidation, average value", "setting": "KnmB2+24, Time 40", "result": 102.4920, "unit": "µM"}, {"measurement": "NADPH oxidation, average value", "setting": "KnmB2+24, Time 60", "result": 111.3076, "unit": "µM"}, {"measurement": "NADPH oxidation, average value", "setting": "KnmB2-F205A+24, Time 0", "result": 0.0000, "unit": "µM"}, {"measurement": "NADPH oxidation, average value", "setting": "KnmB2-F205A+24, Time 1", "result": 0.7985, "unit": "µM"}, {"measurement": "NADPH oxidation, average value", "setting": "KnmB2-F205A+24, Time 2", "result": 1.4255, "unit": "µM"}, {"measurement": "NADPH oxidation, average value", "setting": "KnmB2-F205A+24, Time 3", "result": 1.3880, "unit": "µM"}, {"measurement": "NADPH oxidation, average value", "setting": "KnmB2-F205A+24, Time 4", "result": 1.7631, "unit": "µM"}, {"measurement": "NADPH oxidation, average value", "setting": "KnmB2-F205A+24, Time 5", "result": 1.7310, "unit": "µM"}, {"measurement": "NADPH oxidation, average value", "setting": "KnmB2-F205A+24, Time 8", "result": 1.8274, "unit": "µM"}, {"measurement": "NADPH oxidation, average value", "setting": "KnmB2-F205A+24, Time 10", "result": 2.3312, "unit": "µM"}, {"measurement": "NADPH oxidation, average value", "setting": "KnmB2-F205A+24, Time 15", "result": 2.6313, "unit": "µM"}, {"measurement": "NADPH oxidation, average value", "setting": "KnmB2-F205A+24, Time 20", "result": 3.4566, "unit": "µM"}, {"measurement": "NADPH oxidation, average value", "setting": "KnmB2-F205A+24, Time 30", "result": 5.0911, "unit": "µM"}, {"measurement": "NADPH oxidation, average value", "setting": "KnmB2-F205A+24, Time 40", "result": 7.7546, "unit": "µM"}, {"measurement": "NADPH oxidation, average value", "setting": "KnmB2-F205A+24, Time 60", "result": 10.8575, "unit": "µM"}, {"measurement": "NADPH oxidation, average value", "setting": "KnmB2-N291D+24, Time 0", "result": 0.0000, "unit": "µM"}, {"measurement": "NADPH oxidation, average value", "setting": "KnmB2-N291D+24, Time 2", "result": 1.4470, "unit": "µM"}, {"measurement": "NADPH oxidation, average value", "setting": "KnmB2-N291D+24, Time 4", "result": 2.7331, "unit": "µM"}, {"measurement": "NADPH oxidation, average value", "setting": "KnmB2-N291D+24, Time 5", "result": 4.2337, "unit": "µM"}, {"measurement": "NADPH oxidation, average value", "setting": "KnmB2-N291D+24, Time 8", "result": 6.8060, "unit": "µM"}, {"measurement": "NADPH oxidation, average value", "setting": "KnmB2-N291D+24, Time 10", "result": 8.5745, "unit": "µM"}, {"measurement": "NADPH oxidation, average value", "setting": "KnmB2-N291D+24, Time 15", "result": 11.8971, "unit": "µM"}, {"measurement": "NADPH oxidation, average value", "setting": "KnmB2-N291D+24, Time 20", "result": 16.3451, "unit": "µM"}, {"measurement": "NADPH oxidation, average value", "setting": "KnmB2-N291D+24, Time 30", "result": 24.5445, "unit": "µM"}, {"measurement": "NADPH oxidation, average value", "setting": "KnmB2-N291D+24, Time 40", "result": 34.3516, "unit": "µM"}, {"measurement": "NADPH oxidation, average value", "setting": "KnmB2-N291D+24, Time 60", "result": 49.1426, "unit": "µM"}, {"measurement": "NADPH oxidation, average value", "setting": "KnmB2-Y215A+24, Time 0", "result": 0.0000, "unit": "µM"}, {"measurement": "NADPH oxidation, average value", "setting": "KnmB2-Y215A+24, Time 1", "result": 0.2519, "unit": "µM"}, {"measurement": "NADPH oxidation, average value", "setting": "KnmB2-Y215A+24, Time 2", "result": 0.5145, "unit": "µM"}, {"measurement": "NADPH oxidation, average value", "setting": "KnmB2-Y215A+24, Time 3", "result": 0.7020, "unit": "µM"}, {"measurement": "NADPH oxidation, average value", "setting": "KnmB2-Y215A+24, Time 4", "result": 0.6913, "unit": "µM"}, {"measurement": "NADPH oxidation, average value", "setting": "KnmB2-Y215A+24, Time 5", "result": 0.7449, "unit": "µM"}, {"measurement": "NADPH oxidation, average value", "setting": "KnmB2-Y215A+24, Time 8", "result": 0.9968, "unit": "µM"}, {"measurement": "NADPH oxidation, average value", "setting": "KnmB2-Y215A+24, Time 10", "result": 1.3237, "unit": "µM"}, {"measurement": "NADPH oxidation, average value", "setting": "KnmB2-Y215A+24, Time 15", "result": 2.0043, "unit": "µM"}, {"measurement": "NADPH oxidation, average value", "setting": "KnmB2-Y215A+24, Time 20", "result": 2.2883, "unit": "µM"}, {"measurement": "NADPH oxidation, average value", "setting": "KnmB2-Y215A+24, Time 30", "result": 3.8532, "unit": "µM"}, {"measurement": "NADPH oxidation, average value", "setting": "KnmB2-Y215A+24, Time 40", "result": 5.5520, "unit": "µM"}, {"measurement": "NADPH oxidation, average value", "setting": "KnmB2-Y215A+24, Time 60", "result": 9.2926, "unit": "µM"}, {"measurement": "NADPH oxidation, average value", "setting": "KnmB2-Y215F+24, Time 0", "result": 0.0000, "unit": "µM"}, {"measurement": "NADPH oxidation, average value", "setting": "KnmB2-Y215F+24, Time 1", "result": 2.5724, "unit": "µM"}, {"measurement": "NADPH oxidation, average value", "setting": "KnmB2-Y215F+24, Time 2", "result": 4.4480, "unit": "µM"}, {"measurement": "NADPH oxidation, average value", "setting": "KnmB2-Y215F+24, Time 3", "result": 6.5113, "unit": "µM"}, {"measurement": "NADPH oxidation, average value", "setting": "KnmB2-Y215F+24, Time 4", "result": 8.5745, "unit": "µM"}, {"measurement": "NADPH oxidation, average value", "setting": "KnmB2-Y215F+24, Time 5", "result": 12.2187, "unit": "µM"}, {"measurement": "NADPH oxidation, average value", "setting": "KnmB2-Y215F+24, Time 8", "result": 19.5606, "unit": "µM"}, {"measurement": "NADPH oxidation, average value", "setting": "KnmB2-Y215F+24, Time 10", "result": 24.7588, "unit": "µM"}, {"measurement": "NADPH oxidation, average value", "setting": "KnmB2-Y215F+24, Time 15", "result": 37.2990, "unit": "µM"}, {"measurement": "NADPH oxidation, average value", "setting": "KnmB2-Y215F+24, Time 20", "result": 48.1779, "unit": "µM"}, {"measurement": "NADPH oxidation, average value", "setting": "KnmB2-Y215F+24, Time 30", "result": 66.6667, "unit": "µM"}, {"measurement": "NADPH oxidation, average value", "setting": "KnmB2-Y215F+24, Time 40", "result": 81.1361, "unit": "µM"}, {"measurement": "NADPH oxidation, average value", "setting": "KnmB2-Y215F+24, Time 60", "result": 100.0536, "unit": "µM"}, {"measurement": "coupling efficiency", "setting": "hydroxylatable effector for KnmB2, from NADPH consumption and H2O2 formation in time", "result": "0–45%"}]}]}
